Source: ChEMBL document CHEMBL1143726, “Indole alkaloids produced by a marine fungus isolate of Penicillium janthinellum Biourge” (2007)
Activity calls are given as the source filed them. The calls are words filed in the database; no cut-off is given here.

Tests used:
[1] = test system: C1 41; test: Cytotoxicity against mouse JB6 C1 41 cells up to 200 uM by MTS assay; assay type: functional, cell-based
[2] = test system: HL-60; test: Induction of apoptosis in human HL60 cells at 100 uM after 24 hrs by flow cytometry relative to control; assay type: functional
[3] = Inhibition of EGF-induced malignant transformation of mouse JB6 C1 41 cells in soft agar; assay type: functional

Row | Compound | Activity [1] | Activity [2] [%] | INCC50 [3] [µM]
1 | CC1(C)C=C2c3cc4[nH]c5c(c4cc3C[C@@H]2C(C)(C)O1)C[C@@H]1CC[C@@]2(O)C3=CC(=O)[C@@H]4O[C@@]3(CC[C@]2(C)[C@@]51C)OC4(C)C [SHEARININE A] | inactive | 10 | –
2 | CC1(C)C=C2c3cc4[nH]c5c(c4cc3[C@@H](O)[C@@H]2C(C)(C)O1)C[C@@H]1CC[C@@]2(O)C3=CC(=O)[C@@H]4O[C@@]3(CC[C@]2(C)[C@@]51C)OC4(C)C [SHEARININE D] | inactive | 39 | –
3 | CC(C)=CCc1cc2[nH]c3c(c2cc1CC=C(C)C)C[C@@H]1CC[C@@]2(O)C4=CC(=O)[C@@H]5O[C@@]4(CC[C@]2(C)[C@@]31C)OC5(C)C | inactive | – | –
4 | CC1(C)C=C2c3cc4[nH]c5c(c4cc3[C@H](O)[C@@H]2C(C)(C)O1)C[C@@H]1CC[C@@]2(O)C3=CC(=O)[C@@H]4O[C@@]3(CC[C@]2(C)[C@@]51C)OC4(C)C [SHEARININE E] | inactive | 34 | 13
